# Test results reported in patent US20200017496A1 (priority 2017, published 2020).
# Like-named read-outs stand apart in the source and are kept apart here.
# Assays:
# [1] = test system: Klebsiella pneumoniae (KPN) isolates; assay: MIC of compounds alone and combined with antibacterials, broth microdilution (CLSI); format: cell-based; conditions: Klebsiella pneumoniae, read-out: MIC
# Method in brief: (§1)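 Inoculum 5·10^5 CFU/mL (final), log phase, ca-MHB; 16-20 h, 35° C, ambient air. MIC = lowest conc. with no visible growth; ATB MIC read at each compound level.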
# [2] = test system: Serratia marcescens (SMA) isolates; assay: as above; format: cell-based; conditions: for MIC: Serratia marcescens, read-out: MIC
# Method in brief: as §1
smiles,measurement,setting,value
"C=CC1=C(C(=O)O)N2C(=O)[C@@H](NC(=O)/C(=N\OCC(=O)O)c3csc(N)n3)[C@H]2SC1 [FIX, Cefixime]",MIC,"[1]; strain KPN UFR25 (TEM-1, SHV-11, CTX-M-15, OXA-162), CLA @ 4 μg/ml+ ATB",64 µg/mL
same,MIC,"[1]; strain KPN UFR27 (TEM-1, SHV-28, CTX-M-15, OXA-204), ATB alone",> 128 µg/mL
same,MIC,"[1]; strain KPN UFR27 (TEM-1, SHV-28, CTX-M-15, OXA-204), CLA @ 4 μg/ml+ ATB",> 128 µg/mL
same,MIC,"[1]; strain KPN UFR28 (TEM-1, SHV-1, CTX-M-15, OXA-1, OXA-232), ATB alone",256 µg/mL
same,MIC,"[1]; strain KPN UFR28 (TEM-1, SHV-1, CTX-M-15, OXA-1, OXA-232), CLA @ 4 μg/ml+ ATB",64 µg/mL
same,MIC,"[1]; strain KPN UFR65 (TEM-1, SHV-11, KPC-2), ATB alone",> 128 µg/mL
same,MIC,"[1]; strain KPN UFR65 (TEM-1, SHV-11, KPC-2), CLA @ 4 μg/ml+ ATB",128 µg/mL
same,MIC,"[1]; strain KPN UFR66 (TEM-1, SHV-11, CTX-M-15, KPC-2), ATB alone",512 µg/mL
same,MIC,"[1]; strain KPN UFR66 (TEM-1, SHV-11, CTX-M-15, KPC-2), CLA @ 4 μg/ml+ ATB",64 µg/mL
same,MIC,"[1]; strain KPN UFR67 (TEM-1, SHV-11, KPC-3), ATB alone",> 128 µg/mL
same,MIC,"[1]; strain KPN UFR67 (TEM-1, SHV-11, KPC-3), CLA @ 4 μg/ml+ ATB",128 µg/mL
same,MIC,"[1]; strain KPN UFR68 (TEM-1, SHV-11, CTX-M-15, KPC-3), ATB alone",> 128 µg/mL
same,MIC,"[1]; strain KPN UFR68 (TEM-1, SHV-11, CTX-M-15, KPC-3), CLA @ 4 μg/ml+ ATB",64 µg/mL
same,MIC,"[1]; strain KPN UFR76 (TEM-155, SHV-11, ACT-1, OXA-2), ATB alone",> 128 µg/mL
same,MIC,"[1]; strain KPN UFR76 (TEM-155, SHV-11, ACT-1, OXA-2), CLA @ 4 μg/ml+ ATB",> 128 µg/mL
same,MIC,"[1]; strain KPN UFR77 (CMY-2), ATB alone",128 µg/mL
same,MIC,"[1]; strain KPN UFR77 (CMY-2), CLA @ 4 μg/ml+ ATB",128 µg/mL
same,MIC,"[1]; strain KPN UFR78 (TEM-1, SHV-1, CTX-M-15, CMY-2, OXA-1, OXA-48), ATB alone",> 128 µg/mL
same,MIC,"[1]; strain KPN UFR78 (TEM-1, SHV-1, CTX-M-15, CMY-2, OXA-1, OXA-48), CLA @ 4 μg/ml+ ATB",> 128 µg/mL
same,MIC,"[1]; strain KPN UFR79 (DHA-1, OXA-1), ATB alone",> 128 µg/mL
same,MIC,"[1]; strain KPN UFR79 (DHA-1, OXA-1), CLA @ 4 μg/ml+ ATB",> 128 µg/mL
same,MIC,"[1]; strain KPN UFR80 (SHV-11, DHA-1, OXA-1), ATB alone",≤ 0.25 µg/mL
same,MIC,"[1]; strain KPN UFR80 (SHV-11, DHA-1, OXA-1), CLA @ 4 μg/ml+ ATB",0.5 µg/mL
same,MIC,"[1]; strain KPN UFR81 (TEM-1, SHV-1, DHA-1, OXA-48), ATB alone",> 128 µg/mL
same,MIC,"[1]; strain KPN UFR81 (TEM-1, SHV-1, DHA-1, OXA-48), CLA @ 4 μg/ml+ ATB",> 128 µg/mL
same,MIC,"[1]; strain KPN UFR215 (SHV-27, CTX-M-15), ATB alone",> 128 µg/mL
same,MIC,"[1]; strain KPN UFR215 (SHV-27, CTX-M-15), CLA @ 4 μg/ml+ ATB",1 µg/mL
same,MIC,"[1]; strain KPN UFR216 (SHV-28, CTX-M-15), ATB alone",> 128 µg/mL
same,MIC,"[1]; strain KPN UFR216 (SHV-28, CTX-M-15), CLA @ 4 μg/ml+ ATB",≤ 0.25 µg/mL
same,MIC,"[1]; strain KPN UFR217 (TEM-1, SHV-1, CTX-M-15), ATB alone",> 128 µg/mL
same,MIC,"[1]; strain KPN UFR217 (TEM-1, SHV-1, CTX-M-15), CLA @ 4 μg/ml+ ATB",≤ 0.25 µg/mL
same,MIC,"[1]; strain KPN UFR219 (SHV-12, CTX-M-15), ATB alone",> 128 µg/mL
same,MIC,"[1]; strain KPN UFR219 (SHV-12, CTX-M-15), CLA @ 4 μg/ml+ ATB",0.5 µg/mL
same,MIC,"[1]; strain KPN UFR220 (TEM-1, SHV-12, DHA-1), ATB alone",> 128 µg/mL
same,MIC,"[1]; strain KPN UFR220 (TEM-1, SHV-12, DHA-1), CLA @ 4 μg/ml+ ATB",> 128 µg/mL
same,MIC,"[1]; strain KPN UFR221 (TEM-1, SHV-11, CTX-M-14, DHA-1), ATB alone",64 µg/mL
same,MIC,"[1]; strain KPN UFR221 (TEM-1, SHV-11, CTX-M-14, DHA-1), CLA @ 4 μg/ml+ ATB",128 µg/mL
same,MIC,"[1]; strain KPN UFR222 (DHA-2), ATB alone",> 128 µg/mL
same,MIC,"[1]; strain KPN UFR222 (DHA-2), CLA @ 4 μg/ml+ ATB",> 128 µg/mL
same,MIC,"[1]; strain KPN UFR227O (TEM-x, SHV-x, CTX-M-x), ATB alone",> 128 µg/mL
same,MIC,"[1]; strain KPN UFR227O (TEM-x, SHV-x, CTX-M-x), CLA @ 4 μg/ml+ ATB",> 128 µg/mL
same,MIC ATB in combination,"[2]; SMA UFR30, AF1 @ 4 μg/mL",<=0.25 μg/mL
same,MIC ATB in combination,"[2]; SMA UFR30, AF1 @ 8 μg/mL",<=0.25 μg/mL
same,MIC ATB in combination,"[2]; SMA UFR134, AF1 @ 4 μg/mL",1 µg/mL
same,MIC ATB in combination,"[2]; SMA UFR134, AF1 @ 8 μg/mL",1 µg/mL
same,MIC ATB in combination,"[2]; SMA UFR135, AF1 @ 4 μg/mL",2 µg/mL
same,MIC ATB in combination,"[2]; SMA UFR135, AF1 @ 8 μg/mL",2 µg/mL
same,MIC ATB in combination,"[2]; SMA UFR136, AF1 @ 4 μg/mL",4 µg/mL
same,MIC ATB in combination,"[2]; SMA UFR136, AF1 @ 8 μg/mL",2 µg/mL
same,MIC ATB in combination,"[2]; SMA UFR137, AF1 @ 4 μg/mL",<=0.25 μg/mL
same,MIC ATB in combination,"[2]; SMA UFR137, AF1 @ 8 μg/mL",<=0.25 μg/mL
same,MIC ATB in combination,"[2]; SMA UFR138, AF1 @ 4 μg/mL",<=0.25 μg/mL
same,MIC ATB in combination,"[2]; SMA UFR138, AF1 @ 8 μg/mL",<=0.25 μg/mL
same,MIC ATB in combination,"[2]; SMA UFR139, AF1 @ 4 μg/mL",0.5 µg/mL
same,MIC ATB in combination,"[2]; SMA UFR139, AF1 @ 8 μg/mL",<=0.25 μg/mL
same,MIC ATB in combination,"[2]; SMA UFR141, AF1 @ 4 μg/mL",0.5 µg/mL
same,MIC ATB in combination,"[2]; SMA UFR141, AF1 @ 8 μg/mL",0.5 µg/mL
same,MIC ATB in combination,"[2]; SMA UFR142, AF1 @ 4 μg/mL",2 µg/mL
same,MIC ATB in combination,"[2]; SMA UFR142, AF1 @ 8 μg/mL",1 µg/mL
same,MIC ATB in combination,"[2]; SMA UFR143, AF1 @ 4 μg/mL",0.25 µg/mL
same,MIC ATB in combination,"[2]; SMA UFR143, AF1 @ 8 μg/mL",0.25 µg/mL
same,MIC ATB in combination,"[2]; SMA UFR239, AF1 @ 4 μg/mL",0.5 µg/mL
same,MIC ATB in combination,"[2]; SMA UFR239, AF1 @ 8 μg/mL",0.5 µg/mL
same,MIC,"[2]; ATB alone, strain SMA UFR238 (OXA-48)",1 µg/mL
same,MIC,"[2]; ATB combined with CLA @ 4 μg/ml, strain SMA UFR238 (OXA-48)",2 µg/mL
same,MIC,"[2]; SMA UFR143, alone",512 µg/mL
same,MIC,"[2]; strain SMA UFR30 (OXA-405), ATB alone",1 µg/mL
same,MIC,"[2]; strain SMA UFR30 (OXA-405), CLA @ 4 μg/ml+ ATB",1 µg/mL
same,MIC,"[2]; strain SMA UFR134 (TEM-1, BES-1), ATB alone",> 128 µg/mL
same,MIC,"[2]; strain SMA UFR134 (TEM-1, BES-1), CLA @ 4 μg/ml+ ATB",32 µg/mL
same,MIC,"[2]; strain SMA UFR135 (TEM-1, KPC-2), ATB alone",64 µg/mL
same,MIC,"[2]; strain SMA UFR135 (TEM-1, KPC-2), CLA @ 4 μg/ml+ ATB",32 µg/mL
same,MIC,"[2]; strain SMA UFR136 (TEM-1, SHV-12, KPC-2), ATB alone",> 128 µg/mL
same,MIC,"[2]; strain SMA UFR136 (TEM-1, SHV-12, KPC-2), CLA @ 4 μg/ml+ ATB",> 128 µg/mL
same,MIC,"[2]; strain SMA UFR137 (SME-1), ATB alone",0.5 µg/mL
same,MIC,"[2]; strain SMA UFR137 (SME-1), CLA @ 4 μg/ml+ ATB",1 µg/mL
same,MIC,"[2]; strain SMA UFR138 (SME-1), ATB alone",0.5 µg/mL
same,MIC,"[2]; strain SMA UFR138 (SME-1), CLA @ 4 μg/ml+ ATB",0.5 µg/mL
same,MIC,"[2]; strain SMA UFR139 (SME-2), ATB alone",1 µg/mL
same,MIC,"[2]; strain SMA UFR139 (SME-2), CLA @ 4 μg/ml+ ATB",2 µg/mL
same,MIC,"[2]; strain SMA UFR141 (OXA-48), ATB alone",2 µg/mL
same,MIC,"[2]; strain SMA UFR141 (OXA-48), CLA @ 4 μg/ml+ ATB",0.5 µg/mL
same,MIC,"[2]; strain SMA UFR142 (OXA-48), ATB alone",2 µg/mL
same,MIC,"[2]; strain SMA UFR142 (OXA-48), CLA @ 4 μg/ml+ ATB",2 µg/mL
same,MIC,"[2]; strain SMA UFR143 (CTX-M-15, OXA-1, OXA-48), ATB alone",512 µg/mL
same,MIC,"[2]; strain SMA UFR143 (CTX-M-15, OXA-1, OXA-48), CLA @ 4 μg/ml+ ATB",64 µg/mL
same,MIC,"[2]; strain SMA UFR239 (ESAC), ATB alone",2 µg/mL
same,MIC,"[2]; strain SMA UFR239 (ESAC), CLA @ 4 μg/ml+ ATB",2 µg/mL
same,MIC ATB in combination,"[2]; strain SMA UFR238, antibacterial combined with AF1 @ 4 μg/mL",1 µg/mL
same,MIC ATB in combination,"[2]; strain SMA UFR238, antibacterial combined with AF1 @ 8 μg/mL",0.5 µg/mL
